Assay results: patent publication US12692249B2, “WDR5 inhibitors and modulators” (Vanderbilt University, priority 2019, dated 2026)
Like-named read-outs stand apart in the source and are kept apart here.

Columns and labels:
[1] = tested on: MV4:11 human cancer cell lines; experiment: Cellular viability / anti-proliferative assay, CellTiter-Glo, 5 day protocol; format: cell-based; conditions: Homo sapiens, MV4-11, 120 h, read-out: GI50 on cellular proliferation of MV4:11 human cancer cell lines
In short: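 Luminescent ATP-based viability (CellTiter-Glo) after a 5-day exposure gave GI50 via sigmoidal fitting, averaged over two or more replicates. Compounds spanned 22 two-fold steps down from 30 μM at 0.3% DMSO, on 200 MV-4-11 cells per well grown in IMDM plus 10% FBS.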

[2] = biological target: WDR5 (Homo sapiens, UniProt P61964); experiment: TR-FRET competition binding assay, displacement of 10mer-Thr-FAM MLL peptide probe from His-tagged WDR5; conditions: WDR5-His tag (residues 24-334) 2 nM; 10mer-Thr-FAM 150 nM; 60 min, room temperature; read-out: Ki for Inhibition of WDR5 by TR-FRET assay
Experimental: Time Resolved-Fluorescence Energy Transfer Competition Assay […] Excess 10mer-Thr-FAM probe was utilized with His-tagged WDR5 in conjunction with a commercial anti-His antibody containing a Terbium label. The LanthaScreenTM Elite Tb-anti-HIS Antibody from ThermoFisher Scientific was used for this purpose. […] The 10mer-Thr-FAM probe when bound to WDR5 will undergo a FRET interaction with the Tb-anti-HIS and emit at 520 nm. […] WDR[…] 10[…] used at 150 nM. […] A source plate is prepared using an Echo Liquid Handler, which distributes the compounds to the assay plate (white, flat-bottom; OptiPlate) in a 10-point, 5-fold dilution schemes with a top concentration of 5 μM, in a final volume of 20 μL. […] The final DMSO concentration in each well of the assay plate is 1% or lower. The plate is covered, shielded from light, and incubated for 60 minutes at room temperature with rocking. 10mer-Thr-FAM and Anti-His terbium antibody fluorescence is then measured on a Biotek Cytation 3 at excitation wavelength of 340 nm, and emission wavelengths of 495 nm and 520 nm. […] TR-FRET signal is plotted and IC50 and Ki values are calculated according to the formula of Wang Z. FEBS Lett (1996) 3, 245. Ki=[I]50/([L]50/Kd+[P]0/Kd+1) where [I]50 is the concentration of the free inhibitor at 50% inhibition, [L]50 is the concentration of the free labeled ligand at 50% inhibition, [P]0 is the concentration of the free protein at 0% inhibition, Kd represents the dissociation constant of the FITC-MLL or 10mer-Thr-FAM probe for WDR5. Total fluorescence is also measured, to rule out compounds that are inherently fluorescent or able to act as quenchers in the assay. TR-FRET Binding Assay

[3] = MV4:11 cells, 5 day incubation, CellTiter-Glo, mean of at least two replicates

Compound	GI50 [1, 3] [nM]	Ki [2] [nM]	GI50 [1] [nM]
COc1cc(N2CCN(C)CC2)c2nccc(N3CCc4c(cc(Cn5ccnc5)cc4-c4cn(C)nc4C(F)(F)F)C3=O)c2c1 [Example 31, 7-((1H-Imidazol-1-yl)methyl)-2-(6-methoxy-8-(4-methylpiperazin-1-yl)quinolin-4-yl)-5-(1-methyl-3-(trifluoromethyl)-1H-pyrazol-4-yl)-3,4-dihydroisoquinolin-1(2H)-one]	< 20	< 0.02	–
CCc1cnc2cc(C)cc(N3CCc4c(cc(Cn5ccnc5)cc4-c4cn(C)nc4C(F)(F)F)C3=O)c2c1 [Example 129, 7-((1H-Imidazol-1-yl)methyl)-2-(3-ethyl-7-methylquinolin-5-yl)-5-(1-methyl-3-(trifluoromethyl)-1H-pyrazol-4-yl)-3,4-dihydroisoquinolin-1(2H)-one]	–	0.029	35
CCc1cc(COC2CCOCC2)c2nccc(N3CCc4c(cc(Cn5ccnc5)cc4-c4cn(C)nc4C(F)(F)F)C3=O)c2c1 [Example 182, 7-((1H-Imidazol-1-yl)methyl)-2-(6-ethyl-8-(((tetrahydro-2H-pyran-4-yl)oxy)methyl)quinolin-4-yl)-5-(1-methyl-3-(trifluoromethyl)-1H-pyrazol-4-yl)-3,4-dihydroisoquinolin-1(2H)-one]	< 20	< 0.02	–
CCc1cc(C(=O)NC2CCOCC2)c2nccc(N3CCc4c(cc(Cn5ccnc5)cc4-c4cn(C)nc4C(F)(F)F)C3=O)c2c1 [Example 171, 4-(7-((1H-Imidazol-1-yl)methyl)-5-(1-methyl-3-(trifluoromethyl)-1H-pyrazol-4-yl)-1-oxo-3,4-dihydroisoquinolin-2(1H)-yl)-6-ethyl-N-(tetrahydro-2H-pyran-4-yl)quinoline-8-carboxamide]	< 20	< 0.02	–
CNC(=O)c1cc(N2CCc3c(cc(Cn4ccnc4)cc3-c3cn(C)nc3C(F)(F)F)C2=O)c2cc(OC)ccc2n1 [Example 237, 4-(7-((1H-Imidazol-1-yl)methyl)-5-(1-methyl-3-(trifluoromethyl)-1H-pyrazol-4-yl)-1-oxo-3,4-dihydroisoquinolin-2(1H)-yl)-6-methoxy-N-methylquinoline-2-carboxamide]	51	< 0.02	–
CCn1cc(-c2cc(Cn3ccnc3)cc3c2CCN(c2cccc4ncc(OC)cc24)C3=O)c(C(F)(F)F)n1 [Example 52, 7-((1H-Imidazol-1-yl)methyl)-5-(1-ethyl-3-(trifluoromethyl)-1H-pyrazol-4-yl)-2-(3-methoxyquinolin-5-yl)-3,4-dihydroisoquinolin-1(2H)-one]	62	0.028	–
COc1cc(CN2CCOCC2)c2nccc(N3CCc4c(cc(Cn5ccnc5)cc4-c4cn(C)nc4C(F)(F)F)C3=O)c2c1 [Example 133, 7-((1H-Imidazol-1-yl)methyl)-2-(6-methoxy-8-(morpholinomethyl)quinolin-4-yl)-5-(1-methyl-3-(trifluoromethyl)-1H-pyrazol-4-yl)-3,4-dihydroisoquinolin-1(2H)-one]	< 20	0.035	–
COc1cc(OC)c2nc(C)cc(N3CCc4c(cc(Cn5ccnc5)cc4-c4cn(C)nc4C(F)(F)F)C3=O)c2c1 [Example 18, 7-((1H-Imidazol-1-yl)methyl)-2-(6,8-dimethoxy-2-methylquinolin-4-yl)-5-(1-methyl-3-(trifluoromethyl)-1H-pyrazol-4-yl)-3,4-dihydroisoquinolin-1(2H)-one]	< 20	< 0.02	–
CCn1cc(-c2cc(Cn3ccnc3)cc3c2CCN(c2cncc4ccc(C)cc24)C3=O)c(C(F)(F)F)n1 [Example 54, 7-((1H-Imidazol-1-yl)methyl)-5-(1-ethyl-3-(trifluoromethyl)-1H-pyrazol-4-yl)-6′-methyl-3,4-dihydro-1H-[2,4′-biisoquinolin]-1-one]	71	0.028	–
Cc1nccn1Cc1cc2c(c(-c3cn(C)nc3C(F)(F)F)c1)CCN(C1CCCc3ccc(Br)cc31)C2=O (stereo not shown) [Example 60]	38	0.023	–
CCc1cc(N2CCN3CCOC[C@H]3C2)c2nc(C)cc(N3CCc4c(cc(Cn5ccnc5)cc4-c4cn(C)nc4C(F)(F)F)C3=O)c2c1 [Example 124, (R)-7-((1H-Imidazol-1-yl)methyl)-2-(6-ethyl-8-(hexahydropyrazino[2,1-c][1,4]oxazin-8(1H)-yl)-2-methylquinolin-4-yl)-5-(1-methyl-3-(trifluoromethyl)-1H-pyrazol-4-yl)-3,4-dihydroisoquinolin-1(2H)-one]	< 20	0.03	–
COc1cc(COC2CCC2)c2nccc(N3CCc4c(cc(Cn5ccnc5)cc4-c4cn(C)nc4C(F)(F)F)C3=O)c2c1 [Example 159, 7-((1H-Imidazol-1-yl)methyl)-2-(8-(cyclobutoxymethyl)-6-methoxyquinolin-4-yl)-5-(1-methyl-3-(trifluoromethyl)-1H-pyrazol-4-yl)-3,4-dihydroisoquinolin-1(2H)-one]	159	0.027	–
CCn1cc(N2CCc3c(cc(Cn4ccnc4)cc3-c3cn(C)nc3C(F)(F)F)C2=O)c2cc(OC)cnc21 [Example 84, 7-((1H-Imidazol-1-yl)methyl)-2-(1-ethyl-5-methoxy-1H-pyrrolo[2,3-b]pyridin-3-yl)-5-(1-methyl-3-(trifluoromethyl)-1H-pyrazol-4-yl)-3,4-dihydroisoquinolin-1(2H)-one]	39	< 0.02	–
CCc1cc(C(=O)NCCN(C)C)c2nc(C)cc(N3CCc4c(cc(Cn5ccnc5)cc4-c4cn(C)nc4C(F)(F)F)C3=O)c2c1 [Example 194, 4-(7-((1H-Imidazol-1-yl)methyl)-5-(1-methyl-3-(trifluoromethyl)-1H-pyrazol-4-yl)-1-oxo-3,4-dihydroisoquinolin-2(1H)-yl)-N-(2-(dimethylamino)ethyl)-6-ethyl-2-methylquinoline-8-carboxamide]	< 20	< 0.02	–
COc1cc(CN2CCN(C)CC2)c2nccc(N3CCc4c(cc(Cn5ccnc5)cc4-c4cn(C)nc4C(F)(F)F)C3=O)c2c1 [Example 135, 7-((1H-Imidazol-1-yl)methyl)-2-(6-methoxy-8-((4-methylpiperazin-1-yl)methyl)quinolin-4-yl)-5-(1-methyl-3-(trifluoromethyl)-1H-pyrazol-4-yl)-3,4-dihydroisoquinolin-1(2H)-one]	< 20	0.04	–
COc1cc(C(=O)NC2CN(C(=O)c3ccncc3)C2)c2nccc(N3CCc4c(cc(Cn5ccnc5)cc4-c4cn(C)nc4C(F)(F)F)C3=O)c2c1 [Example 242, 4-(7-((1H-Imidazol-1-yl)methyl)-5-(1-methyl-3-(trifluoromethyl)-1H-pyrazol-4-yl)-1-oxo-3,4-dihydroisoquinolin-2(1H)-yl)-N-(1-isonicotinoylazetidin-3-yl)-6-methoxyquinoline-8-carboxamide]	29	< 0.02	–
CCc1cc(COC2COC2)c2nccc(N3CCc4c(cc(Cn5ccnc5)cc4-c4cn(C)nc4C(F)(F)F)C3=O)c2c1 [Example 191, 7-((1H-Imidazol-1-yl)methyl)-2-(6-ethyl-8-((oxetan-3-yloxy)methyl)quinolin-4-yl)-5-(1-methyl-3-(trifluoromethyl)-1H-pyrazol-4-yl)-3,4-dihydroisoquinolin-1(2H)-one]	< 20	< 0.02	–
COc1cc(CN2CCC(OC)CC2)c2nccc(N3CCc4c(cc(Cn5ccnc5)cc4-c4cn(C)nc4C(F)(F)F)C3=O)c2c1 [Example 142, 7-((1H-Imidazol-1-yl)methyl)-2-(6-methoxy-8-((4-methoxypiperidin-1-yl)methyl)quinolin-4-yl)-5-(1-methyl-3-(trifluoromethyl)-1H-pyrazol-4-yl)-3,4-dihydroisoquinolin-1(2H)-one]	< 20	0.036	–
COc1cc(Br)c2nccc(N3CCc4c(cc(Cn5ccnc5)cc4-c4cn(C)nc4C(F)(F)F)C3=O)c2c1 [Example 29, 7-((1H-Imidazol-1-yl)methyl)-2-(8-bromo-6-methoxyquinolin-4-yl)-5-(1-methyl-3-(trifluoromethyl)-1H-pyrazol-4-yl)-3,4-dihydroisoquinolin-1(2H)-one]	65	< 0.02	–
Cc1cc(N2CCN(C)C(=O)C2)c2cncc(N3CCc4c(cc(Cn5ccnc5)cc4-c4cn(C)nc4C(F)(F)F)C3=O)c2c1 [Example 112, 7-((1H-Imidazol-1-yl)methyl)-6′-methyl-5-(1-methyl-3-(trifluoromethyl)-1H-pyrazol-4-yl)-8′-(4-methyl-3-oxopiperazin-1-yl)-3,4-dihydro-1H-[2,4′-biisoquinolin]-1-one]	23	0.037	–
